Data from patent publication US20240383950A1, “RECOMBINANT GLYCAN BINDING PROTEINS AND ITS USE” (UNICHEM LABORATORIES LIMITED, priority 2021, published 2024).

Assay: MTS-PMS cytotoxicity bioassay, MDA-MB 231
Settings: human, MDA-MB 231 breast cancer cells
Text: 5000 cells/well were used for testing.
The drug Doxorubicin was used as system suitability (SST) reference.

Q: Which cytotoxicity at 100 μm does the source give for COc1cccc2c1C(=O)c1c(O)c3c(c(O)c1C2=O)C[C@@](O)(C(=O)CO)C[C@@H]3O[C@H]1C[C@H](N)[C@H](O)[C@H](C)O1 [Doxorubicin] here?
A: The cytotoxicity at 100 μm was 45%.
